Data as given in paper PMC10451629, “Evaluation of the Effects of Heteroaryl Ethylene Molecules in Combination with Antibiotics: A Preliminary Study on Control Strains” (Antibiotics, 2023).
Converted amounts (≈) assume the structure as drawn. “And” between values parts separate entries of the source, which are not always exact repeats. Equal values may be shown once. Read-outs that look alike come from different tables or passages of the source.

Experiments:
P. aeruginosa ATCC 27853 [1] = test: Broth microdilution MIC; type: cell-based, Pseudomonas aeruginosa
S. aureus ATCC 29213 [2] = test: Broth microdilution MIC; type: cell-based; settings: Staphylococcus aureus, ATCC29213, S. aureus ATCC 29213
E. faecalis ATCC 29212 [3] = test: Broth microdilution MIC; type: cell-based, Enterococcus faecalis
E. coli ATCC 25922 [4] = test: Broth microdilution MIC; type: cell-based; settings: Escherichia coli
[5] = test system: S. aureus ATCC BAA-1556 USA300; test: Broth microdilution MIC; type: cell-based, Staphylococcus aureus; settings: Staphylococcus aureus, S. aureus ATCC BAA-1556 USA300; substance alone
[6] = test system: K. pneumoniae ATCC 700603; test: Broth microdilution MIC; type: cell-based, Klebsiella pneumoniae; settings: for MIC: substance alone
S. aureus ATCC 12598 = test: Broth microdilution MIC; type: cell-based, Staphylococcus aureus; settings: Staphylococcus aureus, ATCC12598, S. aureus ATCC 12598; substance alone; read-out: MIC
A. baumannii ATCC 17978 = test: Broth microdilution MIC; type: cell-based; settings: Acinetobacter baumannii, ATCC17978, substance alone
all tested strains = test: Broth microdilution MIC, summary over all tested strains; type: cell-based; settings: for MIC reduction in combination with PB4: all tested bacterial strains, antibiotic + PB4
S. enterica ATCC 14028 = test: Broth microdilution MIC; type: cell-based; settings: Salmonella enterica, ATCC14028, substance alone
[7] = test system: CaCo-2 (ATCC HTB-37) colon–rectal cancer cell line; test: MTT cytotoxicity assay on CaCo-2 cells; type: cell-based, human; settings: for IC50: Homo sapiens; for Percentage of cell growth, antibiotic / Percentage of cell growth, antibiotic + PB4 0.2 µM: CaCo-2
Protocol: To fully assess the biological activity of the new molecules, they were tested at different concentrations on the CaCo-2 (ATCC HTB-37) colon–rectal cancer cell line. These human cancer cells were exposed to compound solutions ranging in concentration from 100 µM to 0.01 µM. As a reference compound for these assays, we used 5-Fluorouracil (5-FU), a pyrimidine analog from the antimetabolite family.
The MTT assay was also performed for the selected antibiotics to evaluate the effect of their combined treatment with PB4.
To evaluate the effect of the heteroaryl ethylene compounds and the antibiotics, an MTT ([3-(4,5-dimethylthiazol-2-yl)-2,5-diphenyltetrazolium bromide]) assay was performed as previously described. […] Both concentrations were also tested in combination with PB4 0.2 µM. All antibiotics were provided by Thermo Scientific^TM Oxoid^TM, Basingstoke, UK. Twenty-four hours after plating, the cells were treated with 20 μL of each solution. Untreated cells were used as controls. […] The IC50 values were calculated by nonlinear regression analysis using GraphPad Prism 6.0 software.

Gram-positive strains = test: Broth microdilution MIC, summary over Gram-positive strains; type: cell-based
[8] = test system: CaCo2 colon-rectal cancer cell line; parameters: method as in in-house dataset; Log(IC50) 48h: unit not given here; settings: in-house dataset previously tested by the authors' groups, ref in-house dataset, cited from earlier work
Gram-negative bacteria = test: Broth microdilution MIC, summary over Gram-negative bacteria; type: cell-based; settings: summary in text over Gram-negative bacteria
S. aureus ATCC 29213 [9] = test system: S. aureus ATCC 29213; parameters: method as in earlier work; settings: quality control range, ref CLSI; cited from earlier work
P. aeruginosa ATCC 27853 [10] = test system: P. aeruginosa ATCC 27853; parameters: method as in earlier work; settings: quality control range, ref CLSI; cited from earlier work
E. faecalis ATCC 29212 [11] = test system: E. faecalis ATCC 29212; parameters: method as in earlier work; settings: quality control range, ref CLSI; cited from earlier work
E. coli ATCC 25922 [12] = test system: E. coli ATCC 25922; parameters: method as in earlier work; settings: quality control range, ref CLSI; cited from earlier work
[13] = ATCC25922, substance alone, read-out: MIC
[14] = Pseudomonas aeruginosa, ATCC27853, P. aeruginosa ATCC 27853, substance alone, read-out: MIC
[15] = Caco-2, 24 h, CaCo-2 cell line, MTT, 24 h of treatment, read-out: IC50 at 24 h
[16] = Caco-2, 48 h, CaCo-2 cell line, MTT, 48 h of treatment, read-out: IC50 at 48 h
[17] = Enterococcus faecalis, ATCC29212, E. faecalis ATCC 29212, substance alone, read-out: MIC
[18] = Klebsiella pneumoniae, ATCC700603, K. pneumoniae ATCC 700603, read-out: MIC
[19] = antibiotic alone at MIC for E. faecalis ATCC 29212, 24 h
[20] = antibiotic alone at MIC for E. faecalis ATCC 29212, 48 h
[21] = antibiotic alone at sub-MIC (half-MIC), 24 h
[22] = antibiotic alone at sub-MIC (half-MIC), 48 h
[23] = antibiotic at MIC + PB4 0.2 µM, 24 h
[24] = antibiotic at MIC + PB4 0.2 µM, 48 h
[25] = antibiotic at sub-MIC + PB4 0.2 µM, 24 h
[26] = antibiotic at sub-MIC + PB4 0.2 µM, 48 h

Structure (SMILES)	MIC (S. aureus ATCC 29213 [2]; substance alone, read-out: MIC)	MIC (E. coli ATCC 25922 [4]; [13])	MIC [5]	MIC (S. aureus ATCC 12598)	MIC (A. baumannii ATCC 17978)	MIC reduction in combination with PB4 (all tested strains)	MIC (S. enterica ATCC 14028)	MIC (P. aeruginosa ATCC 27853 [1]; [14])	IC50 [7, 15] [nM]	IC50 [7, 16] [nM]	MIC (Gram-positive strains) [µg/mL]	MIC (E. faecalis ATCC 29212 [3]; [17])	MIC [6, 18]	other results
CC1(C)S[C@@H]2[C@H](NC(=O)[C@H](N)c3ccccc3)C(=O)N2[C@H]1C(=O)O [Ampicillin, ampicillin, reference compound]	2 µg/mL (≈ 5.72 µM)	8 µg/mL (≈ 22.9 µM)	8 µg/mL (≈ 22.9 µM)	0.125 µg/mL (≈ 0.358 µM)	32 µg/mL (≈ 91.6 µM)	no significant MIC reductions	2 µg/mL (≈ 5.72 µM)							MIC (P. aeruginosa ATCC 27853 [1]; P. aeruginosa ATCC 27853, substance alone): 2 µg/mL (≈ 5.72 µM); MIC (P. aeruginosa ATCC 27853 [1]; P. aeruginosa ATCC 27853, substance alone, listed as AMP): >128 µg/mL; MIC of antibiotic in combination with PB4 (E. faecalis ATCC 29212 [3]; E. faecalis ATCC 29212, PB4 at fixed 0.125 μg/mL (0.24 μM), a quarter of an MIC value): 1 µg/mL; MIC (E. faecalis ATCC 29212 [3]; E. faecalis ATCC 29212, substance alone): 4 µg/mL (≈ 11.4 µM); MIC (E. faecalis ATCC 29212 [3]; E. faecalis ATCC 29212, substance alone, listed as AMP): 0.25 µg/mL (≈ 0.715 µM); MIC of antibiotic in combination with PB4 ([6]; K. pneumoniae ATCC 700603, sub-MIC PB4): 2 µg/mL; MIC ([6]; K. pneumoniae ATCC 700603): 8 mg/L (≈ 22.9 µM); MIC ([6]; K. pneumoniae ATCC 700603, listed as AMP): >128 mg/L
COc1ccc(/C=C/c2cccc(/C=C/c3ccc(OC)cc3)[n+]2C)cc1 [BCM6]	4 µg/mL and 8.2 µM	128 µg/mL and 264 µM	8 µg/mL and 16.4 µM	4 µg/mL and 8.23 µM	64 µg/mL and 132 µM		> 128 µg/mL and > 264 µM	> 128 µg/mL and > 264 µM	160	180	4 to 8	32 µg/mL and 65.9 µM	> 128 µg/mL and > 264 µM	IC50 ([8]; 48h): 12300 nM; Log(IC50) 48h [8]: 1.09
CC[C@H]1OC(=O)[C@H](C)[C@@H](O[C@H]2C[C@@](C)(OC)[C@@H](O)[C@H](C)O2)[C@H](C)[C@@H](O[C@@H]2O[C@H](C)C[C@H](N(C)C)[C@H]2O)[C@](C)(O)C[C@@H](C)C(=O)[C@H](C)[C@@H](O)[C@]1(C)O [Erythromycin, erythromycin]	0.5 µg/mL (≈ 0.681 µM)		32 µg/mL (≈ 43.6 µM)	0.5 µg/mL (≈ 0.681 µM)		no significant MIC reductions						2 µg/mL (≈ 2.73 µM)		Percentage of cell growth, antibiotic [7, 19]: 148.2%; Percentage of cell growth, antibiotic [7, 20]: 269.0%; Percentage of cell growth, antibiotic [7, 21]: 159.5%; Percentage of cell growth, antibiotic [7, 22]: 280.6%; Percentage of cell growth, antibiotic + PB4 0.2 µM [7, 23]: 133.6%; Percentage of cell growth, antibiotic + PB4 0.2 µM [7, 24]: 117.5%; Percentage of cell growth, antibiotic + PB4 0.2 µM [7, 25]: 124.9%; Percentage of cell growth, antibiotic + PB4 0.2 µM [7, 26]: 155.8%
C[n+]1c(/C=C/c2ccc(N(c3ccccc3)c3ccccc3)cc2)cccc1/C=C/c1ccc(N(c2ccccc2)c2ccccc2)cc1 [GC-VI-10]	128 µg/mL and 169 µM	> 128 µg/mL and > 169 µM	128 µg/mL and 169 µM	64 µg/mL and 84.4 µM	> 128 µg/mL and > 169 µM		> 128 µg/mL and > 169 µM	> 128 µg/mL and > 169 µM	1350	990		4 µg/mL and 5.2 µM	> 128 µg/mL and > 169 µM	MIC levels over all tested strains (all tested strains; summary in text over all tested strains): high MIC levels
C[n+]1c(/C=C/c2ccc(-c3cccs3)s2)cccc1/C=C/c1ccc(-c2cccs2)s1 [GC-VI-70]	16 µg/mL and 26.6 µM	128 µg/mL and 213 µM	4 µg/mL and 6.65 µM	16 µg/mL and 26.6 µM	32 µg/mL and 53.2 µM		> 128 µg/mL and > 213 µM	> 128 µg/mL and > 213 µM	940	3760	2 to 16	2 µg/mL and 3.32 µM	> 128 µg/mL and > 213 µM	IC50 ([7]; Caco-2, CaCo-2 cells, time not given, read-out: IC50 value on CaCo-2 cells): 320 nM; MIC values for Gram-negative bacteria (Gram-negative bacteria): high MIC values
CN(C)c1ccc(/C=C/C=C/c2ccc3ccccc3[n+]2C)cc1 [GC-VII-50]	0.5 µg/mL and 1.1 µM	64 µg/mL and 149 µM	2 µg/mL and 4.6 µM	0.25 µg/mL and 0.5 µM	16 µg/mL and 37.2 µM		> 128 µg/mL and > 297 µM	> 128 µg/mL and > 297 µM	170	70	0.25 to 8	8 µg/mL and 18.5 µM	> 128 µg/mL and > 297 µM	
CNC(C)C1CCC(N)C(OC2C(N)CC(N)C(OC3OCC(C)(O)C(NC)C3O)C2O)O1 (stereo not drawn) [Gentamicin, gentamicin, reference compound]	0.5 µg/mL (≈ 1.05 µM)	0.5 µg/mL (≈ 1.05 µM)	0.5 µg/mL (≈ 1.05 µM)	0.5 µg/mL (≈ 1.05 µM)	2 µg/mL (≈ 4.19 µM)		1 µg/mL (≈ 2.09 µM)	2 µg/mL (≈ 4.19 µM)				4 µg/mL (≈ 8.38 µM)	8 mg/L (≈ 16.8 µM)	Reduction of antibiotic MIC by PB4 (P. aeruginosa ATCC 27853 [1]; P. aeruginosa ATCC 27853, antibiotic + PB4 vs antibiotic alone): 2 -fold log MIC reductions; MIC (P. aeruginosa ATCC 27853 [1]; Pseudomonas aeruginosa, ATCC27853, P. aeruginosa ATCC 27853, quality control strain, technical positive control, read-out: MIC (quality control)): 2 µg/mL (≈ 4.19 µM); MIC CLSI Range (S. aureus ATCC 29213 [9]): 0.125 to 1 µg/mL; MIC CLSI Range (P. aeruginosa ATCC 27853 [10]): 0.5 to 2 µg/mL; Percentage of cell growth, antibiotic [7, 19]: 158.2%; Percentage of cell growth, antibiotic [7, 20]: 247.5%; Percentage of cell growth, antibiotic [7, 21]: 132.3%; Percentage of cell growth, antibiotic [7, 22]: 271.7%; Percentage of cell growth, antibiotic + PB4 0.2 µM [7, 23]: 125.6%; Percentage of cell growth, antibiotic + PB4 0.2 µM [7, 24]: 141.1%; Percentage of cell growth, antibiotic + PB4 0.2 µM [7, 25]: 132.4%; Percentage of cell growth, antibiotic + PB4 0.2 µM [7, 26]: 99.2%; MIC (S. aureus ATCC 29213 [2]; quality control strain, technical positive control, read-out: MIC (quality control)): 0.5 µg/mL (≈ 1.05 µM); Reduction of antibiotic MIC by PB4 (E. faecalis ATCC 29212 [3]; E. faecalis ATCC 29212, antibiotic + PB4 vs antibiotic alone): 2 -fold log reduction; MIC (E. faecalis ATCC 29212 [3]; Enterococcus faecalis, ATCC29212, E. faecalis ATCC 29212, quality control strain, technical positive control, read-out: MIC (quality control)): 8 µg/mL (≈ 16.8 µM); MIC CLSI Range (E. faecalis ATCC 29212 [11]): 4 to 16 µg/mL; MIC (E. coli ATCC 25922 [4]; ATCC25922, quality control strain, technical positive control, read-out: MIC (quality control)): 0.5 µg/mL (≈ 1.05 µM); Reduction of antibiotic MIC by PB4 ([6]; K. pneumoniae ATCC 700603, antibiotic + PB4 vs antibiotic alone): 2 -fold log MIC reductions; MIC CLSI Range (E. coli ATCC 25922 [12]): 0.25 to 1 µg/mL
C[C@@H](O)[C@H]1C(=O)N2C(C(=O)O)=C(SCCN=CN)C[C@H]12 [IMI, imipenem, reference compound]		0.06 µg/mL (≈ 0.2 µM)			0.06 µg/mL (≈ 0.2 µM)	no significant MIC reductions	0.06 µg/mL (≈ 0.2 µM)	0.25 µg/mL (≈ 0.835 µM)					0.03 mg/L (≈ 0.1 µM)	
